According to patent EP0937459A2, “Pharmaceutical compositions for the treatment of ischemic brain damage” (Sumitomo Pharmaceuticals Company, Limited, priority 1998, dated 1999):

Tests used:
[1] = test system: rats with transient ischemia; assay: Brain edema (brain water content) in rats with transient ischemia; type: in vivo
Protocol: Male rats were anesthetized with halothane mixed with nitrous oxide. The cervical region was dissected to ligate the left external carotid artery and the left common carotid artery. Occlusion was induced for 2 hours in the control section at the origin of the middle cerebral artery by inserting a nylon thread through the left internal carotid artery to reach the left middle deutocerebral artery. Reperfusion through the middle cerebral artery was established by withdrawing the nylon thread. The test compound was intravenously given to the animals an hour after the occlusion in a volume of 1 ml/kg. As the test compound, a solution of Compound 1 (0.3 mg/ml or 1 mg/ml) in 8% polyethylene glycol #400 was used. For control, the vehicle alone (8% polyethylene glycol #400) containing no active compound was used. The animals were decapitated 4 hours after reperfusion and the brain was removed. Coronal sections of 4 mm thick were prepared in the ipsilateral hemisphere from 1 mm anterior to 3 mm posterior of the bregma. After the wet weight (W) of each section was weighed, the section was dried in an oven at 110°C for 24 hours and then its dry weight (D) was weighed. The brain water content (WC) was calculated according to the following equation. WC = (W - D) / W x 100 [formula] In the normal control group, the brain water content was 79.9 ± 0.1% (mean ± standard error in 15 cases); however, by reperfusion following the occlusion, the brain water content in the control group increased to 83.3 ± 0.3% (mean + standard error in 15 cases).
(§1) Compound 2 was elucidated for the effect on brain edema in a manner similar to that of Example 4. The test compound was intravenously given immediately after the reperfusion to the animals in a volume of 1 ml/kg. As the test compound, a solution of Compound 2 (1 mg/ml) in 8% polyethylene glycol #400 was used. For control, the vehicle (8% polyethylene glycol #400) containing no active compound was used.
as §1, with “3” for “2”, “3 (0.3 mg/ml or 1” for “2 (1”, “vehicle alone” for “vehicle”

[2] = test system: transient ischemic rats; assay: Infarcted area in rats with transient ischemia (2 h middle cerebral artery occlusion, then reperfusion); type: in vivo; settings: 1 mg/ml
Protocol: Male rats were anesthetized with halothane mixed with nitrous oxide. The cervical region was dissected to ligate the left external carotid artery and the left common carotid artery. Occlusion was induced for 2 hours in the control section at the origin of the middle cerebral artery by inserting a nylon thread through the left internal carotid artery to reach the left middle deutocerebral artery. Reperfusion through the middle cerebral artery was established by withdrawing the nylon thread. The test compound was intravenously given to the animals in a volume of 1 ml/kg at 30 minutes after the occlusion. As the test compound, a solution of Compound 1 (1 mg/ml) in 8% polyethylene glycol #400 was used. For control, the vehicle (8% polyethylene glycol #400) containing no active compound was used. The animals were decapitated 22 hours after reperfusion and the brain was removed. Coronal sections of 2 mm thick were prepared in the ipsilateral hemisphere from 3 mm anterior to 5 mm posterior of the bregma. The sections were stained with 2,3,5-triphenyltetrazolium chloride for photographing. The photographs were scanned with a scanner (GT-8000, Epson) for computer-based image analysis (software used, Ep Scan Mac 1. 40). The rate of the infarcted area of each section in the left hemisphere was analyzed by a computer (software used, NIH image 1.59). The pharmacological effect was evaluated by mean percentage of the infarcted areas in the five sections obtained in one rat.
as §1, with “the infarcted area” for “brain edema”, “1.” for “4.”, “intraperitoneally” for “intravenously”, “30 minutes before” for “immediately after”, “occlusion” for “reperfusion”
Compound 3 was elucidated for the effect on the infarcted area in a manner similar to that of Example 1. […]

[3] = test system: cultured glial cells; settings: Kempski et al., Stroke 19, 385-392, 1988; cited from earlier work
[4] = test system: ischemic animal models; settings: ischemic animal models in vivo; literature; cited from earlier work

## Cn1c(C(=O)N=C(N)N)cc2ccccc21 [Compound 1, 1-methyl-2-indoloylguanidine methanesulfonate]
[1]; 0.3 mg/kg intravenously an hour after the occlusion, 4 hours after reperfusion, mean ± standard error in 16 cases, normal control 79.9 ± 0.1%, control group 83.3 ± 0.3%, p<1%
  brain water content: 82.6 ± 0.3%
[1]; 1 mg/kg intravenously an hour after the occlusion, 4 hours after reperfusion, mean ± standard error in 16 cases, normal control 79.9 ± 0.1%, control group 83.3 ± 0.3%, p<1%
  brain water content: 82.2 ± 0.3%
[2]; 1 ml/kg intravenously 30 minutes after the occlusion, 22 hours after reperfusion, mean ± standard error in 8 cases, control group 47.9 ± 3.6%, p<5%
  mean infarcted area observed in each section: 35.4 ± 3.1%

## Cc1cccc2c1cc(C(=O)N=C(N)N)n2C [Compound 2, 1,4-dimethyl-2-indoloylguanidine methanesulfonate]
[1]; 1 mg/ml, 1 ml/kg intravenously immediately after the reperfusion, mean ± standard error in 11 cases, normal control 78.7 ± 0.1%, control group 81.9 ± 0.4%, no significant effect
  brain water content: 82.0 ± 0.4%
[2]; 1 ml/kg intraperitoneally 30 minutes before the occlusion, mean ± standard error in 5 cases, control group 49.5 ± 4.1%, p<1%
  infarcted area observed in each section: 26.6 ± 3.1%

## N=C(N)NC(=O)c1cc2c(Cl)ccc3c2n1CCCCC3=O [Compound 3, N-(aminoiminomethyl)-5,6,7,8-tetrahydro-11-chloro-8-oxo-4H-azocino[3,2,1-hi]indole-2-carboxamide methanesulfonate monohydrate]
[1]; 0.3 mg/kg intravenously immediately after the reperfusion, mean ± standard error in 9 cases, normal control 79.2 ± 0.2%, control group 82.8 ± 0.3%, tendency
  brain water content: 82.4 ± 0.3%
[1]; 1 mg/kg intravenously immediately after the reperfusion, mean ± standard error in 11 cases, normal control 79.2 ± 0.2%, control group 82.8 ± 0.3%, tendency
  brain water content: 81.7 ± 0.4%
[2]; 1 ml/kg intraperitoneally immediately after the occlusion, mean ± standard error in 13 cases, control group 55.4 ± 2.1%, p<5%
  infarcted area observed in each section: 45.2 ± 2.2%

## CC(=O)Nc1nnc(S(N)(=O)=O)s1 [acetazolamide]
[3]
  cell swelling induced by acid loading: cell swelling was prevented
[4]
  effect of preventing cerebral edema: no significant effect of preventing cerebral edema

## N=C(N)NC(=O)c1nc(Cl)c(N)nc1N [amiloride]
[3]
  cell swelling induced by acid loading: attenuated cell swelling
